In this series the test system is rodent carcinogenicity bioassays, tumor incidence. As to the kind of experiment: CCRIS carcinogenicity studies. A digest of the protocol: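 NCI-built, expert-reviewed records of carcinogenicity and related test outcomes (mutagenicity, tumor promotion/inhibition) compiled from published and report sources, historical span 1985-2011, not updated.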

Active and inactive are the calls of the source. How the calls were made is not given here.

Take `Oc1ccc(-c2c(Cl)cc(Cl)cc2Cl)cc1`: the carcinogen call (Species: MOUSE, Strain/Sex: BALB/CCRGL/FEMALE, Route: SUBCUTANEOUS, Dose: 20 UG DAILY FOR 5 D BEGINNING 16 HR AFTER BIRTH (STUDY DURATION: 20 MO), Tumor Site: Type of Lesion: MAMMARY GLAND: CARCINOMA (5/33), CERVICOVAGINAL TRACT: CARCINOMA (2/33), LUNG TUMORS (3/33), Tumor Site: Type of Lesion: MAMMARY GLAND: CARCINOMA (5/33), CERVICOVAGINAL TRACT: CARCINOMA (2/33), LUNG TUMORS (3/33)) is “active; positive; (statistically significant for total number of tumors)” and the carcinogen call (Species: MOUSE, Strain/Sex: BALB/CCRGL/FEMALE, Route: SUBCUTANEOUS, Dose: 200 UG DAILY FOR 5 D BEGINNING 16 HR AFTER BIRTH (STUDY DURATION: 20 MO), Tumor Site: Type of Lesion: CERVICOVAGINAL TRACT: CARCINOMA (10/22)) was “active; positive”.
With `C[C@]12CC[C@H](O)CC1=CC[C@@H]1[C@@H]2CC[C@]2(C)C(=O)CC[C@@H]12`, the carcinogen call runs as follows: (Species: FISH, Strain/Sex: RAINBOW TROUT/MALE, FEMALE, Route: ORAL, Dose: 0, 55, 111, 222, 444, 888 PPM IN DIET 1/D 5 D/WK FOR 42 WK (STUDY DURATION: 42 WK), Dose: 0, 55, 111, 222, 444, 888 PPM IN DIET 1/D 5 D/WK FOR 42 WK (STUDY DURATION: 42 WK), Tumor Site: Type of Lesion: LIVER: TUMOR) “active; positive”; (Species: FISH, Strain/Sex: RAINBOW TROUT/MALE,FEMALE, Route: ORAL, Dose: 0, 55, 111, 222, 444, 888 PPM IN DIET FOR 7 MO (STUDY DURATION: 10 MO), Dose: 0, 55, 111, 222, 444, 888 PPM IN DIET FOR 7 MO (STUDY DURATION: 10 MO), Tumor Site: Type of Lesion: LIVER: TUMOR) “active; positive”; (Species: RAT, Strain/Sex: F344/MALE, Route: ORAL, Dose: 0, 0.45% (WEIGHT/WEIGHT) IN SEMIPURIFIED DIET OIL STRIPPED OF VITAMIN E FOR STUDY DURATION, (STUDY DURATION: 84 WK), Dose: 0, 0.45% (WEIGHT/WEIGHT) IN SEMIPURIFIED DIET OIL STRIPPED OF VITAMIN E FOR STUDY DURATION, (STUDY DURATION: 84 WK), Tumor Site: Type of Lesion: LIVER: HEPATOCELLULAR CARCINOMA) “active; positive”; (Species: RAT, Strain/Sex: F344/MALE, Route: ORAL, Dose: 0, 0.5, 1% IN DIET FOR 78 WK (STUDY DURATION: 78 WK), Dose: 0, 0.5, 1% IN DIET FOR 78 WK (STUDY DURATION: 78 WK), Tumor Site: Type of Lesion: LIVER: NEOPLASM) “active; positive”.
With `CS(=O)(=O)c1ccc([C@@H](O)[C@@H](CO)NC(=O)C(Cl)Cl)cc1`, the carcinogen call is “inactive; negative” (Species: RAT, Strain/Sex: F344/FEMALE, Route: ORAL, Dose: 0, 125, 250 PPM IN DRINKING WATER FOR 104 WK (STUDY DURATION: 108 WK), Dose: 0, 125, 250 PPM IN DRINKING WATER FOR 104 WK (STUDY DURATION: 108 WK)) and “inactive; negative” (Species: RAT, Strain/Sex: F344/MALE, Route: ORAL, Dose: 0, 125, 250 PPM IN DRINKING WATER FOR 104 WK (STUDY DURATION: 108 WK), Dose: 0, 125, 250 PPM IN DRINKING WATER FOR 104 WK (STUDY DURATION: 108 WK)).
In the case of `Nc1cc([N+](=O)[O-])ccc1NC(CO)(CO)CO`, the carcinogen call (Species: RAT, Strain/Sex: SPRAGUE-DAWLEY/FEMALE, Route: ORAL, Dose: 0, 0.2, 0.6, 2% IN DIET OF MATED AND NONMATED RATS FOR UP TO 6 MO (STUDY DURATION: 6 MO), Dose: 0, 0.2, 0.6, 2% IN DIET OF MATED AND NONMATED RATS FOR UP TO 6 MO (STUDY DURATION: 6 MO), Tumor Site: Type of Lesion: MAMMARY GLAND: TUMOR) is “active; positive” and the carcinogen call (Species: RAT, Strain/Sex: SPRAGUE-DAWLEY/MALE, Route: ORAL, Dose: 0, 0.2, 0.6, 2% IN DIET FOR UP TO 6 MO (STUDY DURATION: 6 MO), Dose: 0, 0.2, 0.6, 2% IN DIET FOR UP TO 6 MO (STUDY DURATION: 6 MO)) was “inactive; negative”.
On to `O=NN1CCC1`, for which the carcinogen call (Species: HAMSTER, Strain/Sex: SYRIAN/MALE, Route: INTRAGASTRIC, Dose: 0, 50 MG/ML IN 0.2 ML STERILIZED WATER 1/WK FOR 50 WK (TOTAL DOSE 500 MG) (STUDY DURATION: LIFESPAN), Tumor Site: Type of Lesion: LIVER: ADENOMA, HEPATOCELLULAR CARCINOMA, HEMANGIOSARCOMA, NOSE: CARCINOMA) is “active; positive”.
`CN(C)CCOC(c1ccccc1)c1ccccc1`: the carcinogen call was “inactive; negative” (Species: MOUSE, Strain/Sex: B6C3F1/FEMALE, Route: ORAL, Dose: 0, 156, 313 PPM IN FEED FOR 103 WK (STUDY DURATION: 106 WK), Dose: 0, 156, 313 PPM IN FEED FOR 103 WK (STUDY DURATION: 106 WK)); “inactive; negative” (Species: MOUSE, Strain/Sex: B6C3F1/MALE, Route: ORAL, Dose: 0, 156, 313 PPM IN FEED FOR 105 WK (STUDY DURATION: 106 WK), Dose: 0, 156, 313 PPM IN FEED FOR 105 WK (STUDY DURATION: 106 WK)); “equivocal” (Species: RAT, Strain/Sex: F344/FEMALE, Route: ORAL, Dose: 0, 156, 313 PPM IN FEED FOR 103 WK (STUDY DURATION: 106 WK), Dose: 0, 156, 313 PPM IN FEED FOR 103 WK (STUDY DURATION: 106 WK), Tumor Site: Type of Lesion: PITUITARY GLAND: ADENOMA); “inactive; negative” (Species: RAT, Strain/Sex: F344/FEMALE, Route: ORAL, Dose: 0, 2000 PPM IN DIET FOR 106 WK (STUDY DURATION: 130 WK)); “equivocal” (Species: RAT, Strain/Sex: F344/MALE, Route: ORAL, Dose: 0, 313, 625 PPM IN FEED FOR 103 WK (STUDY DURATION: 106 WK), Dose: 0, 313, 625 PPM IN FEED FOR 103 WK (STUDY DURATION: 106 WK), Tumor Site: Type of Lesion: BRAIN: ASTROCYTOMA OR GLIOMA, LUNG: ALVEOLAR/BRONCHIOLAR ADENOMA OR CARCINOMA); “inactive; negative” (Species: RAT, Strain/Sex: F344/MALE, Route: ORAL, Dose: 0, 2000 PPM IN DIET FOR 106 WK (STUDY DURATION: 130 WK)).
As to `Cc1c(N)cccc1N`, the carcinogen call (Species: MOUSE, Strain/Sex: B6C3F1/FEMALE, Route: ORAL, Dose: 0, 50, 100 PPM IN DIET, Dose: 0, 50, 100 PPM IN DIET) was “inactive; negative”; the carcinogen call (Species: MOUSE, Strain/Sex: B6C3F1/MALE, Route: ORAL, Dose: 0, 50, 100 PPM IN DIET, Dose: 0, 50, 100 PPM IN DIET) is “inactive; negative”; the carcinogen call (Species: RAT, Strain/Sex: F344/FEMALE, Route: ORAL, Dose: 0, 250, 500 PPM IN DIET, Dose: 0, 250, 500 PPM IN DIET) is “inactive; negative”; the carcinogen call (Species: RAT, Strain/Sex: F344/MALE, Route: ORAL, Dose: 0, 250, 500 PPM IN DIET, Dose: 0, 250, 500 PPM IN DIET) is “inactive; negative”.
Consider `C=CCCl`, for which the carcinogen call reads like this: (Species: MOUSE, Strain/Sex: B6C3F1/FEMALE, Route: GAVAGE, Dose: 0, 129, 258 MG/KG IN CORN OIL 5 D/WK FOR 78 (STUDY DURATION: 92 WK), Dose: 0, 129, 258 MG/KG IN CORN OIL 5 D/WK FOR 78 (STUDY DURATION: 92 WK), Tumor Site: Type of Lesion: FORESTOMACH: SQUAMOUS CELL CARCINOMA OR PAPILLOMA) “equivocal”; (Species: MOUSE, Strain/Sex: B6C3F1/MALE, Route: GAVAGE, Dose: 0, 172, 199 MG/KG IN CORN OIL 5 D/WK FOR 78 (STUDY DURATION: 92 WK), Dose: 0, 172, 199 MG/KG IN CORN OIL 5 D/WK FOR 78 (STUDY DURATION: 92 WK), Tumor Site: Type of Lesion: FORESTOMACH: SQUAMOUS CELL CARCINOMA) “equivocal”; (Species: RAT, Strain/Sex: OSBORNE-MENDEL/FEMALE, Route: GAVAGE, Dose: 0, 55, 73 MG/KG N CORN OIL 5 D/WK FOR 78 (STUDY DURATION: 108-111 WK), Dose: 0, 55, 73 MG/KG N CORN OIL 5 D/WK FOR 78 (STUDY DURATION: 108-111 WK)) “inactive; negative”; (Species: RAT, Strain/Sex: OSBORNE-MENDEL/MALE, Route: GAVAGE, Dose: 0, 57, 77 MG/KG IN CORN OIL 5 D/WK FOR 78 (STUDY DURATION: 108-111 WK), Dose: 0, 57, 77 MG/KG IN CORN OIL 5 D/WK FOR 78 (STUDY DURATION: 108-111 WK)) “inactive; negative”.
Turning to `CCC1(c2ccccc2)C(=O)NC(=O)NC1=O`, the carcinogen call (Species: MOUSE, Strain/Sex: 6HF1/MALE, Route: ORAL, Dose: 0, 0.05% IN BASAL DIET FOR 104 WK (STUDY DURATION: 104 WK), Tumor Site: Type of Lesion: LIVER: TUMOR) was “active; positive”.

These data come from PubChem BioAssay AID1259411 (Chemical Carcinogenesis Research Information System (CCRIS), 2018).
